Source: patent US12090252B2, “Method for producing retinal tissues” (RIKEN, priority 2017, dated 2024)

Experiments:
Format in all cases: cell-based
[1] = system: cell aggregates containing a retinal tissue produced from human ES cells; experiment: CRX-positive and TRβ2-positive cells in retinal tissue, about day 70 of suspension culture (immunostaining, Image J); conditions: for CRX-positive and TRβ2-positive cells (cone photoreceptor precursor) / CRX-positive cells (photoreceptor precursor) contained in retinal tissue: about day 70 (day 71-75) from start of suspension culture, T3 60 nM from day 38, BMP4 0.15 nM or Cyclopamine-KAAD 500 nM from day 22
Description: (§1) A cell aggregate containing a retinal tissue in an initial developmental stage was prepared by the method described in “Kuwahara et al. Nat Commun 2015, 19(6), 6286-” after modification in part. That is, the aforementioned cultured ES cells were individually dispersed using TRYPLE™ Express cell dispersion solution (Invitrogen), and the individually dispersed human ES cells were suspended in 100 μL of a serum-free medium in a cell non-adhesive 96 well culture plate (SUMILON spheroid plate, SUMITOMO BAKELITE CO., LTD.) at 9×10^3 cells per well to allow rapid formation of aggregates, after which they were cultured at 37° C., 5% CO2. As the serum-free medium therefor, a serum-free medium obtained by adding 10% KSR, 450 μM 1-monothioglycerol, 1× Chemically defined lipid concentrate, 5 mg/mL BSA, 20 μM Y27632 to a 1:1 mixture of F-12 medium and IMDM medium was used. At 6 days after the start of suspension culture, BMP4 at a final concentration of 1.5 nM was added and suspension culture was continued. A half amount of the culture medium in the well was exchanged with the above-mentioned medium not supplemented with a BMP signal transduction pathway agonist every 3 or 4 days. A cell aggregate containing a retinal tissue at day 18 from the start of suspension culture was cultured in suspension in a serum-free medium (DMEM/F12 medium supplemented with 1% N2 supplement) containing 3 μM CHIR99021 and 5 μM SU5402 for 4 days, namely, up to day 22 from the start of suspension culture. Thereafter, suspension culture of the cell aggregate containing the retinal tissue was continued until it was appropriately used for analysis and the like. As the culture medium during this period, serum-containing media shown in the following to [3] were used and the cell aggregate was cultured under 5% CO2 conditions. • [1] day 22 to day 38 from the start of suspension culture; DMEM/F12 medium supplemented with 10% fetal calf serum, 1% N2 supplement, and 100 μM taurine (hereinafter to be referred to as medium A). • [2] day 38 to day 60 from the start of suspension culture; a 1:3 mixed medium of medium A, and Neurobasal medium supplemented with 10% fetal calf serum, 2% B27 supplement, […], and 100 μM taurine (hereinafter to be referred to as medium B). • [3] after day 60 or later from the start of suspension culture: medium B.
The cell aggregates containing a retinal tissue shown in Example 4 were prepared by respectively adding T3 or dorsalization signal transmitter (BMP4) as follows in the method described in Example 1. • [1]-T3 group (FIG. 4a, FIG. 4e, FIG. 4i); using the culture medium described in Example 1, culture was performed without addition up to day 75 from the start of suspension culture. • [2] +T3 group (FIG. 4b, FIG. 4f, FIG. 4j); using the culture medium described in Example 1, 60 nM T3 was further added from day 38 from the start of suspension culture to the completion of suspension culture, and cultured up to day 71 from the start of suspension culture. • [3] +T3+BMP group (FIG. 4c, FIG. 4g, FIG. 4k); using the culture medium described in Example 1, 0.15 nM BMP4 and 60 nM T3 were further added respectively from day 22, day 38 from the start of suspension culture to the completion of suspension culture, and cultured up to day 71 from the start of suspension culture. • [4] +T3+Cyclopamine-KAAD group (FIG. 4d, FIG. 4h, FIG. 4l); using the culture medium described in Example 1, 500 nM Cyclopamine-KAAD and 60 nM T3 were further added respectively from day 22, day 38 from the start of suspension culture to the completion of suspension culture, and cultured up to day 71 from the start of suspension culture.
After fixing cell aggregates containing retinal tissue cultured under the above conditions with 4% para-formaldehyde, cryosections were prepared and subjected to immunostaining using CRX, TRβ2(TRb2) antibody, or DAPI staining for staining the cell nucleus.

[2] = system: cell aggregates containing a retinal tissue produced from human ES cells; experiment: PAX6/CHX10 cell proportions in retinal tissue, about day 190 of suspension culture (immunostaining, Image J); conditions: for PAX6-negative/CHX10-strongly positive cells (bipolar cells) / PAX6-strongly positive/CHX10-negative cells (any of ganglion cell, amacrine cell, horizontal cell): about day 190 (day 188-191), T3 60 nM day 38-130, BMP4 0.15 nM or Cyclopamine-KAAD 500 nM day 22-100; for PAX6-strongly positive/CHX10-negative cell and PAX6-negative/CHX10-strongly positive cell, observation with fluorescent microscope: day 188-191, groups added with T3 compared to groups with no addition
Description: as §1
The cell aggregates containing a retinal tissue shown in Example 5 were prepared by respectively adding T3 or dorsalization signal transmitter as follows in the method described in Example 1. • [1]-T3 group (FIG. 5a, FIG. 5g, FIG. 5m); using the culture medium described in Example 1, culture was performed without addition up to day 191 from the start of suspension culture. • [2] +T3 group (FIG. 5b, FIG. 5h, FIG. 5n); using the culture medium described in Example 1, 60 nM T3 was further added from day 38 to day 130 from the start of suspension culture, and thereafter cultured up to day 188 from the start of suspension culture. From day 130 to day 188, medium B described in Example 1 was used. • [3] +BMP group (FIG. 5c, FIG. 5i, FIG. 5o); using the culture medium described in Example 1, 0.15 nM BMP4 was further added from day 22 to day 100 from the start of suspension culture, and thereafter cultured up to day 191 from the start of suspension culture. From day 100 to day 191, medium described in Example 1 was used. • [4] +T3+BMP group (FIG. 5d, FIG. 5j, FIG. 5p); using the culture medium described in Example 1, 0.15 nM BMP4 was further added from day 22 to day 100 from the start of suspension culture, 60 nM T3 was added from day 38 to day 130 from the start of suspension culture, and thereafter cultured up to day 188 from the start of suspension culture.

[3] = system: cell aggregates containing a retinal tissue produced from human ES cells; experiment: CRX:Venus, RXR-γ and NRL cell proportions in retinal tissue, about day 190 of suspension culture (immunostaining, Image J); conditions: for CRX-positive cells (CRX:Venus-positive, photoreceptor precursor) / NRL-positive cells among CRX-positive cells (rod photoreceptor precursor) / RXR-γ-positive and NRL-negative cell among CRX-positive cells (cone photoreceptor precursor): about day 190 (day 188-193), T3 60 nM day 38-130, BMP4 0.15 nM or Cyclopamine-KAAD 500 nM day 22-100
Description: as §1
The cell aggregates containing a retinal tissue shown in Example 6 were prepared by respectively adding T3 or dorsalization signal transmitter (BMP4 or Cyclopamine-KAAD) as follows in the method described in Example 1. • [1]-T3 group (FIG. 6a, FIG. 6e, FIG. 6i, FIG. 6m); using the culture medium described in Example 1, culture was performed without addition up to day 191 from the start of suspension culture. • [2] +T3 group (FIG. 6b, FIG. 6f, FIG. 6j, FIG. 6n); using the culture medium described in Example 1, 60 nM T3 was further added from day 38 to day 130 from the start of suspension culture, and thereafter cultured up to day 192 from the start of suspension culture. From day 130 to day 192, medium described in Example 1 was used. • [3] +T3+BMP group (FIG. 6c, FIG. 6g, FIG. 6k, FIG. 6o); using the culture medium described in Example 1, 0.15 nM BMP4 was further added from day 22 to day 100 from the start of suspension culture, 60 nM T3 was added from day 38 to day 130 from the start of suspension culture, and thereafter cultured up to day 188 from the start of suspension culture. From day 130 to day 188, medium described in Example 1 was used. • [4] +T3+Cyclopamine-KAAD group (FIG. 6d, FIG. 6h, FIG. 6l, FIG. 6p); using the culture medium described in Example 1, 500 nM Cyclopamine-KAAD was further added from day 22 to day 100 from the start of suspension culture, 60 nM T3 was added from day 38 to day 130 from the start of suspension culture, and thereafter cultured up to day 193 from the start of suspension culture. From day 130 to day 193, medium described in Example 1 was used.

[4] = system: cell aggregates containing a retinal tissue produced from human ES cells; experiment: CRX-positive cells in neural retinal tissue, day 100-105 of suspension culture (immunostaining, Image J)
Description: A cell aggregate containing a retinal tissue in an initial developmental stage was prepared by the method described in “Kuwahara et al. Nat Commun 2015, 19(6), 6286-” after modification in part. That is, the aforementioned cultured ES cells were individually dispersed using TRYPLE™ Express cell dispersion solution (Invitrogen), and the individually dispersed human ES cells were suspended in 100 μL of a serum-free medium in a cell non-adhesive 96 well culture plate (SUMILON spheroid plate, SUMITOMO BAKELITE CO., LTD.) at 9×10^3 cells per well to allow rapid formation of aggregates, after which they were cultured at 37° C., 5% CO2. As the serum-free medium therefor, a serum-free medium obtained by adding 10% KSR, 450 μM 1-monothioglycerol, 1× Chemically defined lipid concentrate, 5 mg/mL BSA, 20 μM Y27632 to a 1:1 mixture of F-12 medium and IMDM medium was used. At 6 days after the start of suspension culture, BMP4 at a final concentration of 1.5 nM was added and suspension culture was continued. A half amount of the culture medium in the well was exchanged with the above-mentioned medium not supplemented with a BMP signal transduction pathway agonist every 3 or 4 days. A cell aggregate containing a retinal tissue at day 18 from the start of suspension culture was cultured in suspension in a serum-free medium (DMEM/F12 medium supplemented with 1% N2 supplement) containing 3 μM CHIR99021 and 5 μM SU5402 for 4 days, namely, up to day 22 from the start of suspension culture. Thereafter, suspension culture of the cell aggregate containing the retinal tissue was continued until it was appropriately used for analysis and the like. […]

[5] = system: cell aggregates containing a retinal tissue produced from human ES cells; experiment: CRX:Venus green fluorescence of cell aggregates under a fluorescent microscope, day 69-74; conditions: T3 vs −T3 group
Description: A cell aggregate containing a retinal tissue in an initial developmental stage was prepared by the method described in “Kuwahara et al. Nat Commun 2015, 19(6), 6286-” after modification in part. That is, the aforementioned cultured ES cells were individually dispersed using TRYPLE™ Express cell dispersion solution (Invitrogen), and the individually dispersed human ES cells were suspended in 100 μL of a serum-free medium in a cell non-adhesive 96 well culture plate (SUMILON spheroid plate, SUMITOMO BAKELITE CO., LTD.) at 9×10^3 cells per well to allow rapid formation of aggregates, after which they were cultured at 37° C., 5% CO2. As the serum-free medium therefor, a serum-free medium obtained by adding 10% KSR, 450 μM 1-monothioglycerol, 1× Chemically defined lipid concentrate, 5 mg/mL BSA, 20 μM Y27632 to a 1:1 mixture of F-12 medium and IMDM medium was used. At 6 days after the start of suspension culture, BMP4 at a final concentration of 1.5 nM was added and suspension culture was continued. A half amount of the culture medium in the well was exchanged with the above-mentioned medium not supplemented with a BMP signal transduction pathway agonist every 3 or 4 days. […]

[6] = day 71-75, T3 vs −T3 group, combinations vs +T3 group
[7] = day 188-193, compared to −T3 group

Molecule	CRX-positive and TRβ2-positive cells (cone photoreceptor precursor) [1] [%]	CRX-positive cells (photoreceptor precursor) contained in retinal tissue [1] [%]	PAX6-negative/CHX10-strongly positive cells (bipolar cells) [2] [%]	PAX6-strongly positive/CHX10-negative cells (any of ganglion cell, amacrine cell, horizontal cell) [2] [%]	PAX6-strongly positive/CHX10-negative cell and PAX6-negative/CHX10-strongly positive cell, observation with fluorescent microscope [2]	CRX-positive cells (CRX:Venus-positive, photoreceptor precursor) [3] [%]	NRL-positive cells among CRX-positive cells (rod photoreceptor precursor) [3] [%]	RXR-γ-positive and NRL-negative cell among CRX-positive cells (cone photoreceptor precursor) [3] [%]	CRX-positive cell (photoreceptor precursor), observation with fluorescence microscope [1, 6]	cone photoreceptor precursors (CRX-positive cell that expresses TRβ2), observation [1, 6]	ectopic CRX-positive cell in region on the basement membrane side from neuroblastic layer ([1]; day 71-75, observation with fluorescence microscope)	RXR-γ-positive and NRL-negative cone photoreceptor precursor among CRX:Venus-positive photoreceptor precursors, observation [3, 7]	proportion of photoreceptor precursor among the cells contained in the retinal tissue, observation [3, 7]	proportion of CRX-positive cells contained in the neural retinal tissue ([4]; T3 60 nM from day 38, BMP4 0.15 nM or Cyclopamine-KAAD 500 nM day 22-100) [%]	CRX-positive cell (photoreceptor precursor), observation ([4]; compared to −T3 group)	ectopic photoreceptor precursors in neuroblastic layer and ganglion cell layer ([4]; observation)	green fluorescence shown by knocked-in CRX:Venus ([5]; day 69-74, T3 60 nM from day 38, BMP4 0.15 nM or Cyclopamine-KAAD 500 nM from day 22, combinations vs +T3 group)	green fluorescence shown by knocked-in CRX:Venus, in the presence of 9-cis retinoic acid ([5]; day 74, 100 nM 9-cis retinoic acid and 60 nM T3 from day 38, BMP4 0.45 nM from day 22, combination vs +T3 group)
CC1=C2C[C@H]3[C@@H](CC=C4CC(=O)CC[C@@]43C)[C@@H]2CC[C@]12O[C@@H]1C[C@H](C)CN(CCNC(=O)CCCCCNC(=O)CCc3ccccc3)[C@H]1[C@H]2C [Cyclopamine-KAAD]	8.1	14.1	8.65	24.50	many	41.7	11.5	30.2										
N[C@@H](Cc1cc(I)c(Oc2ccc(O)c(I)c2)c(I)c1)C(=O)O [T3, triiodothyronine]	11.3	22.8	4.29	13.83	markedly decreased	53.4	9.4	44.1	found more	found in a greater number	found at the same level as in the apical surface	increased	markedly high	30.0	remarkably increased	ectopic photoreceptor precursors are contained	observed more	observed more
BMP4: BMP protein, BMP signal transduction pathway agonist used as dorsalization signal transmitter	10.8	17.0	15.49	24.60	many	37.7	6.1	31.3										
